Values quoted from earlier work, collected in patent US20050065087A1, “Pharmaceutical compositions and methods comprising combinations of 2-alkylidene-19-nor-vitamin D derivatives and a bone morphogenetic protein” (Pfizer Inc., priority 2003, published 2005).

How the values were obtained:
[1] = test system: male weanling rats on vitamin D-deficient diet; conditions: for bone calcium mobilization (in words): chronic 7 days, 130 and 260 pmol/day
[2] = test system: male weanling rats on vitamin D-deficient diet; conditions: chronic 7 days, 130 and/or 260 pmol/day as tested
HL-60 cells = conditions: method of Ostrem et al.

| SMILES | serum calcium value (text sentence) ([1]; 'twice the dose ... at the 130 pmol dose' as printed, 7 days) | intestinal calcium transport (in words) [2] | bone calcium mobilization (in words) [1] | inducing differentiation of HL-60 cells to the monocyte (in words) (HL-60 cells) | bone calcium mobilization activity relative to the native hormone, 'possible' upper estimate ([1]; 130 pmol/day, chronic mode 7 days) | bone calcium mobilization activity relative to 1,25-(OH)2D3 (native hormone) ([1]; chronic mode 7 days, estimate in the text) |
| --- | --- | --- | --- | --- | --- | --- |
| C=C1/C(=C\C=C2/CCC[C@]3(C)[C@@H]([C@H](C)CCCC(C)(C)O)CC[C@@H]23)C[C@@H](O)C[C@@H]1O [1,25-(OH)2D3, 1,25-dihydroxyvitamin D3, reference compound] | 13.8 mg/100 ml | expected elevation | – | – | – | – |
| C=C1[C@H](O)CC(=C/C=C2\CCC[C@]3(C)[C@@H]([C@H](C)CCCC(C)(C)O)CC[C@@H]23)C[C@H]1O [2-Methylene-19-Nor-1,25-(OH)2D3, 1α,25-dihydroxy-2-methylene-19-nor-vitamin D3] | – | no intestinal calcium transport activity | extremely strong bone calcium mobilization | activity similar to 1,25-(OH)2D3 | – | – |
| C=C1[C@H](O)CC(=C/C=C2\CCC[C@]3(C)[C@@H]([C@@H](C)CCCC(C)(C)O)CC[C@@H]23)C[C@H]1O [2-Methylene-19-Nor-20S-1,25-(OH)2D3, (20S)-1α,25-dihydroxy-2-methylene-19-nor-vitamin D3] | – | no significant change | most potent compound tested | extremely potent | 100-1,000 times | at least 10 times |
